Measurements as given in US8679746B2, “Compositions and methods for predicting outcome of treatment” (Dako Denmark A/S, priority 2005, dated 2014).

Columns and labels:
[1] = tested on: breast cancer; settings: in vivo; cited from earlier work
[2] = tested on: metastatic head and neck cancer; test: 5-FU infusion in a patient with metastatic head and neck cancer; format: in vivo; settings: one patient; 1000 mg/m^2 per 24 hours, 120 hours infusion; evaluated after one and a half month
Protocol: A patient with metastatic head and neck cancer was treated with 5-fluorouracil (5-FU) infusion at a dose of 1000 mg/m^2 per 24 hours. The total infusion time was 120 hours.

[3] = cited from earlier work

SMILES: COc1cccc2c1C(=O)c1c(O)c3c(c(O)c1C2=O)C[C@@](O)(C(=O)CO)C[C@@H]3O[C@H]1C[C@H](N)[C@@H](O)[C@H](C)O1 [epirubicin]
- reduction in overall survival on substitution of methotrexate in CMF with epirubicin [1]: 25%

SMILES: O=c1[nH]cc(F)c(=O)[nH]1 [5-FU, 5-Fluorouracil]
- treatment response [2]: progressive disease

SMILES: CCCCCOC(=O)Nc1nc(=O)n([C@@H]2O[C@H](C)[C@@H](O)[C@H]2O)cc1F [capecitabine]
- higher concentrations in tumor tissue compared to plasma ([3]; tumor tissue vs plasma): 21 fold
- higher FU concentration in tumor compared to normal tissue ([3]; tumor vs normal tissue): 3.2 fold
